Data published in patent US10293026B2, “Agent for preventing or treating demyelinating disease” (Osaka University, priority 2014, dated 2019).

Tests used:
[1] = tested on: oligodendrocyte precursor cells; assay: BrdU uptake by oligodendrocyte precursor cells with culture supernatant of cardiomyocytes and FGFR inhibitors (Example 1); type: cell-based, C57BL/6j mice; details: SU5402 at 10, 30, 100 μM or PD173074 at 0.03, 0.1, 0.3, 1 μM added with supernatant; FIG. 1
Protocol: Hearts extracted from C57BL/6j mice (postnatal day 1-old) were minced, and then poured into 1 mg/ml of Type 1 collagenase (Worthington) and shaken at 37° C. for 20 minutes. The obtained cell suspension was pipetted and allowed to stand, and then the supernatant was collected. Remaining cardiomyocytes after the collection of the supernatant were again poured into 1 mg/ml of Type 1 collagenase (Worthington) and shaken at 37° C. for 20 minutes, and then the supernatant was collected. This operation was repeated three times. The collected supernatant was suspended in MEM ([…]) containing 5% calf serum, and the cell suspension was poured into a culture dish. After 30 minutes, suspension cells were collected, and were resuspended in MEM containing 5% calf serum and then centrifuged (2000 rpm, 6 minutes). […]
The harvested oligodendrocyte precursor cells were seeded in a poly-L-lysine (Sigma)-coated plastic tissue culture dish, and cultured in a medium for 1 day (37° C., 5% CO2). […] Bromodeoxyuridine (BrdU) was subsequently added and cultured at 37° C. for 24 hours, and then the cells were collected; the BrdU uptake was then detected using the cell proliferation ELISA, BrdU colorimetric kit (Roche). As a control, the BrdU uptake was measured under the same conditions as those described above, except that the culture supernatant of cardiomyocytes was not added. […]

[2] = tested on: oligodendrocyte precursor cells; assay: BrdU uptake by oligodendrocyte precursor cells with recombinant FGFs (Example 3); type: cell-based, C57BL/6j mice; details: FGF at 10, 30 or 100 ng/ml, vs saline control; FIG. 3
Protocol: Recombinant FGF15 (Abcam), FGF21 (R&D), or FGF23 (R&D) was diluted in saline solution immediately before use to prepare an each FGF-containing solution. Oligodendrocyte precursor cells were harvested from C57BL/6j mice (postnatal day 1-old) brains, as in Example 1.
Initially, the oligodendrocyte precursor cells were seeded in a poly-L-lysinde (Sigma)-coated plastic tissue culture dish, and cultured in the following medium for 1 day (37° C., 5% CO2). The medium used was DMEM containing 4 mM L-gludamine (Sigma), 1 mM sodium pyruvate (Sigma), 0.1% bovine serum albumin (Sigma), 50 μg/ml apo-Transferrin (Sigma), 5 μg/ml insulin (Sigma), 30 nM sodium selenite (Sigma), 10 nM biotin (Sigma), 10 nM hydrocortisone (Sigma), 10 ng/ml Platelet-Derived Growth Factor-AA (Peprotech), and 10 ng/ml basic fibroblast growth factor (Peprotech). Thereafter, each type of FGF-containing solution was added to the culture medium of oligodendrocyte precursor cells such that the concentration of each type of FGF was 10 ng/ml, 30 ng/ml, or 100 ng/ml, and the cells were cultured at 37° C. for 24 hours. BrdU was subsequently added and cultured at 37° C. for 24 hours, and then the cells were collected; the BrdU uptake was then detected using the cell proliferation ELISA, BrdU colorimetric kit (Roche). As a control, an equivalent amount of saline solution was used instead of the FGF21-containing solution, and the BrdU uptake was measured under the same conditions as those described above. This experiment studied three cases for each group.

## CCN(CC)CCCCNc1ncc2cc(-c3cc(OC)cc(OC)c3)c(NC(=O)NC(C)(C)C)nc2n1 [PD173074]
[1]
  increase in the BrdU uptake by culture supernatant of cardiomyocytes: suppressed

## Cc1c[nH]c(/C=C2\C(=O)Nc3ccccc32)c1CCC(=O)O [SU5402]
[1]
  increase in the BrdU uptake by culture supernatant of cardiomyocytes: suppressed

B1: FGF23: Recombinant FGF23 (R&D), comparison FGF subtype (protein, UniProt Q9GZV9 25-251, looked up)
Fibroblast growth factor 23: YPNASPLLGSSWGGLIHLYTATARNSYHLQIHKNGHVDGAPHQTIYSALMIRSEDAGFVVITGVMSRRYLCMDFRGNIFGSHYFDPENCRFQHQTLENGYDVYHSPQYHFLVSLGRAKRAFLPGMNPPPYSQFLSRRNEIPLIHFNTPIPRRHTRSAEDDSERDPLNVLKPRARMTPAPASCSQELPSAEDNSPMASDPLGVVRGGRVNTHAGGTGPEGCRPFAKFI
[2]
  BrdU uptake by the oligodendrocyte precursor cells: significant difference in the amounts of BrdU uptake was not observed

B2: FGF15: Recombinant FGF15 (Abcam), comparison FGF subtype (protein, UniProt O35622 26-218, looked up)
Fibroblast growth factor 15: RPLAQQSQSVSDEDPLFLYGWGKITRLQYLYSAGPYVSNCFLRIRSDGSVDCEEDQNERNLLEFRAVALKTIAIKDVSSVRYLCMSADGKIYGLIRYSEEDCTFREEMDCLGYNQYRSMKHHLHIIFIQAKPREQLQDQKPSNFIPVFHRSFFETGDQLRSKMFSLPLESDSMDPFRMVEDVDHLVKSPSFQK
[2]
  BrdU uptake by the oligodendrocyte precursor cells: significant difference in the amounts of BrdU uptake was not observed
